Reference: US6605619B1, “Nitroxides as protectors against oxidatives stress” (The United States of America as represented by the …, priority 1992, dated 2003)
“Also recorded” adds a separate entry of the source. Marks after values point to notes of the source that are not given here.

Columns and labels:
[1] = EPR signal of nitroxides exposed to O2 flux formed by HX/XO (spin-loss); format: biochemical; details: for Steady state EPR signal (%): % from total R′RNO + R′RNOH after exposure to 5 mM HX + 0.03 U/ml XO in air-saturated PBS pH 7.2; for effect of O2 on the EPR signal: exposure to O2 flux formed by HX/XO
Procedure: For EPR experiments, samples (0.05-0.1 ml) either of solutions of chemicals or cell suspensions were drawn by a syringe into a gas-permeable teflon capillary of 0.8 mm inner diameter, 0.05 mm wall thickness (Zeus Industrial Products, Inc. Raritan, N.J.). Each capillary was folded twice, inserted into a narrow quartz tube which was open at both ends (2.5 mm ID), and then placed horizontally into the EPR cavity. During the experiments, gases of desired compositions were blown around the sample without having to disturb the alignment of the tube within the EPR cavity. EPR spectra were recorded in a Varian E4 (or E9) X-band spectrometer, with field set at 3357 G, modulation frequency of 100 KHz, modulation amplitude of 1 G and non-saturating microwave power. The EPR spectrometer was interfaced to an IBM-PC through an analog-to-digital converter and a data translation hardware (DT2801) and the spectra were digitized using commercial acquisition software, enabling subtraction of background signals. To study the kinetics of the spin-loss, the spectra were deliberately overmodulated, and the magnetic field was kept constant while the intensity of the EPR signal was followed.

[2] = SOD-inhibitable ferricytochrome c reduction assay, rate constants of reaction with O2 (SOD-like activity); format: biochemical; details: low ionic strength (10 mM HEPES), pH 7.0, 22° C.
Excerpt: As a further check, the reaction of representatives of both 5- and 6-membered cyclic nitroxides with O2 was studied. The SOD-inhibitable ferricytochrome c reduction assay (Fridovich, Handbook of Methods for Oxygen Radical Research, 213-215, 1985) was used to determine rate constants of reaction with O2. […] The reaction was started by adding 0.01 U/ml XO and the rate of ferricytochrome c reduction, in the absence (V) and in the presence (v) of various nitroxides, was spectrophotometrically followed at 550 nm. Both reference and sample cuvettes contained all the reagents, with the reference cuvette containing 100 units/ml SOD, thereby eliminating spurious reactions from interfering with the determination of rate constants. Data were analyzed by plotting V/v as a function of [nitroxide] and k1 was calculated, knowing kCytC+superoxide, according to:
(V/v)−1=k1x[nitroxide]/kCytC+superoxidex[Cyt−c^III].

V79 cells = assay: Cytotoxicity of the agents alone, clonogenic assay; format: cell-based, Chinese hamster; details: concentrations used: catalase 100 U/ml; SOD 100 μg/ml; DF 500 μM; nitroxides 5 mM
Procedure: For subsequent studies, the most lipophilic nitroxide, CHD, and the most hydrophilic one, TEMPOL, were chosen.
Chinese hamster V79 cells were grown in F12 medium supplemented with 10% fetal calf serum, penicillin, and streptomycin. Survival was assessed in all studies by the clonogenic assay. The plating efficiency range between 80-90%. Stock cultures of exponentially growing cells were trypsinized, rinsed, and plated (5×10^5 cells/dish) into a number of 100 mm petri dishes and incubated 16 h at 37° C. prior to experimental protocols. Cells were exposed for 1 h at 37° C. to either 0.5 mM hypoxanthine (HX)+0.05 U/ml of xanthine oxidase (XO) for varying lengths of time, or to H2O2 at different concentrations. To assess possible modulation in cytotoxicity, catalase, 100 U/ml; SOD, 100 μg/ml; DF, 500 μM; and 5 mM of each of the nitroxides from Table 1 were added to parallel cultures. CHD was prepared in a stock solution in ethanol and diluted into medium such that the final concentration was 5 mM. […] TEMPOL is water soluble and was prepared directly in tissue culture medium. […] Following treatment, cells were rinsed, trypsinized, counted, and plated for macroscopic colony formation. […] Plates were incubated 7 days, after which colonies were fixed with methanol/acetic acid, stained with crystal violet, and counted. Colonies containing >50 cells were scored. […]

[3] = tested on: Chinese hamster V79 cells; assay: Protection of cells exposed to HX/XO, clonogenic survival; format: cell-based; details: 0.05 U/ml XO + 0.5 mM HX, 37° C.; 5 mM nitroxide; 100 U/ml catalase; SOD; 500 μM DF preincubated 2 h
Procedure: Chinese hamster V79 cells were grown in F12 medium supplemented with 10% fetal calf serum, penicillin, and streptomycin. Survival was assessed in all studies by the clonogenic assay. The plating efficiency range between 80-90%. Stock cultures of exponentially growing cells were trypsinized, rinsed, and plated (5×10^5 cells/dish) into a number of 100 mm petri dishes and incubated 16 h at 37° C. prior to experimental protocols. Cells were exposed for 1 h at 37° C. to either 0.5 mM hypoxanthine (HX)+0.05 U/ml of xanthine oxidase (XO) for varying lengths of time, or to H2O2 at different concentrations. To assess possible modulation in cytotoxicity, catalase, 100 U/ml; SOD, 100 μg/ml; DF, 500 μM; and 5 mM of each of the nitroxides from Table 1 were added to parallel cultures. CHD was prepared in a stock solution in ethanol and diluted into medium such that the final concentration was 5 mM. […] TEMPOL is water soluble and was prepared directly in tissue culture medium. […] DF was added either 2 h prior to or during treatment while the other agents were present only during HX/XO or H2O2 treatment. Following treatment, cells were rinsed, trypsinized, counted, and plated for macroscopic colony formation. For each dose determination cells were plated in triplicate and the experiments were repeated a minimum of two times. Plates were incubated 7 days, after which colonies were fixed with methanol/acetic acid, stained with crystal violet, and counted. Colonies containing >50 cells were scored. Error bars represent S.D. of the mean and are shown when larger than the symbol.

[4] = tested on: Chinese hamster V79 cells; assay: Protection of cells exposed to H2O2, clonogenic survival; format: cell-based; details: H2O2 for 1 h, 37° C., full medium; 5 mM nitroxide; 100 U/ml catalase; 100 μg/ml SOD; 500 μM DF preincubated 2 h
Procedure: Chinese hamster V79 cells were grown in F12 medium supplemented with 10% fetal calf serum, penicillin, and streptomycin. Survival was assessed in all studies by the clonogenic assay. The plating efficiency range between 80-90%. Stock cultures of exponentially growing cells were trypsinized, rinsed, and plated (5×10^5 cells/dish) into a number of 100 mm petri dishes and incubated 16 h at 37° C. prior to experimental protocols. Cells were exposed for 1 h at 37° C. to either 0.5 mM hypoxanthine (HX)+0.05 U/ml of xanthine oxidase (XO) for varying lengths of time, or to H2O2 at different concentrations. To assess possible modulation in cytotoxicity, catalase, 100 U/ml; SOD, 100 μg/ml; DF, 500 μM; and 5 mM of each of the nitroxides from Table 1 were added to parallel cultures. CHD was prepared in a stock solution in ethanol and diluted into medium such that the final concentration was 5 mM. […] TEMPOL is water soluble and was prepared directly in tissue culture medium. […] DF was added either 2 h prior to or during treatment while the other agents were present only during HX/XO or H2O2 treatment. Following treatment, cells were rinsed, trypsinized, counted, and plated for macroscopic colony formation. […] Plates were incubated 7 days, after which colonies were fixed with methanol/acetic acid, stained with crystal violet, and counted. Colonies containing >50 cells were scored. […]

DNA-Fe(II) = assay: Reaction of nitroxide with DNA-Fe(II), EPR spin-loss and OD353nm; format: biochemical, Salmon; details: TEMPOL hypoxically mixed with DNA-Fe(II)
Procedure: All solutions always contained 0.1 mg/ml Salmon DNA. The appearance of DNA-Fe(III) was spectrophotometrically monitored at 353 nm, whereas the spin-loss of CHD was monitored by following its EPR signal. To study the time-dependence of ΔOD353nm (∘), 1 mM CHD was mixed with 0.1 mM Fe(II). To follow the spin-loss of CHD (□), 1 mM Fe(II) was mixed with 0.1 mM CHD.
It was also questioned whether the aerobic and hypoxic protection by CHD to H2O2 exposure was a result of CHD directly accepting electrons from ferrous ions, thereby preventing generation of .OH. Because cellular iron is chelated, the possible reaction of nitroxide with chelated iron(II) was examined by repeating the experiment in the presence of DNA. To study the possibility of nitroxide-induced oxidation of transition metals, CHD was hypoxically mixed with iron(II) in the presence of 0.1 mg/ml Salmon DNA. Consequently, DNA-Fe(III) was formed and the nitroxide EPR signal disappeared. The reaction kinetics were investigated by maintaining either CHD or Fe(II) in excess while the absorbance due to DNA-Fe(III) and the nitroxide spin-loss were monitored respectively (FIG. 6). Both the decay of the EPR signal and the appearance of the OD353nm obeyed pseudo 1st order kinetics from which the 2nd order reaction rate constant was calculated as 44 M^−1s^−1 or 33 M^−1s^−1 using the data from EPR or optical absorption, respectively.

[5] = tested on: Chinese hamster V79 cells; assay: In vitro protection against ionizing radiation, clonogenic survival; format: cell-based; details: 100 mM TEMPOL 10 min prior to irradiation
C3H mice [6] = assay: Protection of mice against whole body radiation, 30 day survival; format: in vivo
Procedure: Controls were given saline.
Controls were given saline. Survival was recorded 30 days after exposure to radiation. The LD50(30) refers to that dose of radiation at which 50% of the mice survived 30 days after exposure.

C3H mice [7] = assay: Nitroxide-induced weight loss, chronic oral administration in drinking water; format: in vivo; details: 10 mg per ml in drinking water
Excerpt: Thus, nitroxide given over extended periods appears to cause weight loss in animals.

kidneys of mice = assay: Post-irradiation protection after local kidney irradiation, weight gain and kidney histology; format: in vivo; details: 28 weeks
Procedure: This hypothesis has been tested in experiments where both kidneys of mice were locally irradiated with single, acute doses of radiation. […] At 28 weeks after irradiation, the animals were sacrificed, and histological analysis was performed on their kidneys to assess damage.

[8] = Water/octanol partition of nitroxides, ratio determined by EPR; format: physicochemical; details: Octanol:water
Excerpt: CHD, 2-spirocyclohexane doxyl(2-spirocyclohexane-5,5-dimethyl-3-oxazolidinoxyl) and OXANO, 2-ethyl-2,5,5-trimethyl-3-oxazolidine-1-oxyl as well as other nitroxides were synthesized as described by Keana et al (J. Am. Chem. Soc., 89, 3055-3056, 1967) For the general synthesis of the cyclic amines, the appropriate starting ketone was reacted with 2-amino-2-methyl-1-propanol in benzene in the presence of catalytic amounts of p-toluene sulfonic acid. As the cyclic structure formed, water was eliminated. The volume of water collected in a Dean Stark apparatus was monitored and used to gauge the reaction progress. The amines thus produced were purified through fractional distillation under reduced pressure, characterized by 220 MHz ^1H NMR, IR, UV, either EI or CI mass spectroscopy, and subsequently oxidized to the corresponding nitroxides using m-chloroperbenzoic acid. The nitroxides were purified by silica flash chromatography (Still et al, J. Org. Chem., 43, 2923-2925, 1978). Water/octanol ratios were determined by placing a quantity of nitroxide in water+octanol within a separatory funnel. The mixture was shaken thoroughly and allowed to separate for 15 min, whereupon aliquots were taken from both fractions and the ratio of nitroxide distribution was determined using electron paramagnetic resonance (EPR) spectroscopy, by comparing the intensities of signal obtained under N2.

SMILES | Steady state EPR signal (%) [1] [%] | effect of O2 on the EPR signal [1] | kR′RNO + O2 [2] | cytotoxicity of agent alone (V79 cells) | cell survival / protection from HX/XO [3] | protection against H2O2 cytotoxicity [4] | 2nd order reaction rate constant with DNA-Fe(II) (DNA-Fe(II)) [M⁻¹ s⁻¹] | extent of protection against irradiation [5] | toxicity in irradiated mice (C3H mice [6]; 275 mg/kg intraperitoneally) | increase of LD50(30) (C3H mice [6]; 275 mg/kg intraperitoneally 10 min prior to whole body radiation 3 Gy to 13 Gy, versus saline controls) | toxicity on chronic oral administration (C3H mice [7]; >3 weeks) | reduction of weight compared to controls (C3H mice [7]; chronic oral administration (>3 weeks)) [%] | kidney histology, TEMPOL alone (kidneys of mice; no radiation) | kidney histology, 24 Gy plus TEMPOL (kidneys of mice; single dose 24 Gy, oral TEMPOL two weeks post-irradiation) | Partition coefficient [8]
CC1(C)CCCC(C)(C)N1[O] [TEMPO, 2,2,6,6-tetramethylpiperidine-1-oxyl] | 100 | no effect | 1.3 × 10^6 M − 1^s − 1 |  |  |  |  |  |  |  |  |  |  |  | 
CC1(C)CC(O)CC(C)(C)N1[O] [TEMPOL, 4-hydroxy-2,2,6,6-tetramethylpiperidine-1-oxyl] | 100 | no effect | 3.4 × 10^5 M − 1^s − 1 | Neither catalase, SOD, DF, CHD, nor TEMPOL were cytotoxic alone | fully protected | fully protected; also recorded: complete protection | 40 | approximately 2.5 fold | no toxicity | approximately 25% | no apparent toxicity | 12.5 | identical to a section from a kidney of a control animal | protection against glomerular sclerosis and tubular cell loss | 
CCC1(C)OC(C)(C)CN1[O] (centres unmarked) [OXANO, 2-ethyl-2,5,5-trimethyl-3-oxazolidine-1-oxyl] | 50 |  | 1.1 × 10^3 M − 1^s − 1 |  |  |  |  |  |  |  |  |  |  |  | 10
